Here are results for nine molecules from ChEMBL document CHEMBL1201862, “PubChem BioAssay data set” (2004).

As a reminder, the GI50 is the concentration that inhibits growth by half.

Molecules are shown by their SMILES.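 Five concentrations, 48 hours, 96-well plates. At the GI50, growth is halved.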 Activity calls are given as the source filed them. Rule as the data show it: active = GI50 up to about 1.1 µM and inactive = higher.

Test systems include SNB-75; HCT-116; OVCAR-5; SF-295; PC-3; EKVX; OVCAR-4; CAKI-1; NCI-H460; MDA-MB-435; MDA-MB-231; ACHN; HCC 2998; OVCAR-8; UACC-62; Hs-578T; NCI-H226.
Common to all, as to test: DTP human tumour cell line panel, 48 h

`CCOC(=O)C1=NN(c2ccc(Cl)cc2)C2=CC(C)=NN(C)C(=S)N21`: the GI50 in the assay on SNB-75 was 26.8 µM (inactive); in the assay on HCT-116, 36.6 µM (inactive); in the assay on OVCAR-5, > 100 µM (inactive); in the assay on SF-295 it was 42.2 µM (inactive); in the assay with PC-3, > 100 µM (inactive); with EKVX, 29.9 µM (inactive). In addition, the GI50 with OVCAR-4 is 37.6 µM (inactive); in the assay with CAKI-1, 19.9 µM (inactive); in the assay on NCI-H460 it was > 100 µM (inactive); in the assay with MDA-MB-435, > 100 µM (inactive); in the assay on MDA-MB-231, 44.5 µM (inactive); in the assay with ACHN, 72.6 µM (inactive). Moreover, the GI50 is > 100 µM (inactive) with HCC 2998, 41.3 µM (inactive) in the assay on OVCAR-8, 40.6 µM (inactive) with UACC-62 and 27.5 µM (inactive) in the assay with Hs-578T.
As for `CC(=C(c1ccccc1)c1ccccc1)N1C(=O)CC(=O)N1C`, the GI50 in the assay with NCI-H226 is > 100 µM (inactive); in the assay on SNB-75, 67.6 µM (inactive); with HCT-116, 74.6 µM (inactive); in the assay with OVCAR-5 it was 53.2 µM (inactive); in the assay with SF-295, 52.7 µM (inactive); in the assay with PC-3, 21.9 µM (inactive). The GI50 with EKVX is 53.3 µM (inactive); in the assay on OVCAR-4, 32.1 µM (inactive); in the assay with CAKI-1, 21.1 µM (inactive); with NCI-H460, 29.2 µM (inactive); in the assay with MDA-MB-435, 41.1 µM (inactive); in the assay with ACHN it was > 100 µM (inactive). Further, the GI50 was 47 µM (inactive) in the assay with HCC 2998, 99.1 µM (inactive) with OVCAR-8, 26 µM (inactive) in the assay on UACC-62 and 20.3 µM (inactive) in the assay with Hs-578T.
Take `Cc1ccc(C(=O)Cc2nc3c([nH]c2=O)c(C)nn3-c2ccccc2)c(C)c1`: the GI50 was 1.01 µM (active) in the assay with SNB-75; 4.69 µM (inactive) in the assay on HCT-116; > 10 µM (inactive) with SF-295; > 10 µM (inactive) in the assay on PC-3; 2.29 µM (inactive) in the assay on OVCAR-4; > 10 µM (inactive) in the assay with CAKI-1. Also, the GI50 with MDA-MB-435 was > 10 µM (inactive); with MDA-MB-231, > 10 µM (inactive); in the assay on ACHN, > 10 µM (inactive); with HCC 2998 it was > 10 µM (inactive); in the assay on OVCAR-8, 8.22 µM (inactive); in the assay on UACC-62 it was > 10 µM (inactive). The GI50 in the assay with Hs-578T is > 10 µM (inactive).
As to `CC12CCC(=O)[C@@]1(C)CCCC2O` (stereo partly drawn), the GI50 in the assay on NCI-H226, in the assay on SNB-75, in the assay on HCT-116, in the assay on OVCAR-5, with SF-295 and in the assay with PC-3 was > 100 µM (inactive) each time. The GI50 in the assay on EKVX, in the assay with OVCAR-4, in the assay with CAKI-1, with NCI-H460, in the assay with MDA-MB-231 and in the assay on ACHN was > 100 µM (inactive) throughout. Besides, the GI50 in the assay with HCC 2998, in the assay on OVCAR-8, with UACC-62 and in the assay with Hs-578T was > 100 µM (inactive) throughout.
On to `CCN(CC)CCCNc1nc(=O)[nH]c(C)c1C(=O)Nc1ccc2c(c1)c1ccccc1n2CC`, for which the GI50 in the assay with NCI-H226, in the assay with SNB-75, with HCT-116, in the assay on OVCAR-5, in the assay on SF-295 and with PC-3 was > 100 µM (inactive) in each case. Also, the GI50 with EKVX, in the assay on OVCAR-4, with CAKI-1, with MDA-MB-435, in the assay on MDA-MB-231 and with ACHN was > 100 µM (inactive) throughout. Also, the GI50 with HCC 2998, with OVCAR-8 and with UACC-62 was > 100 µM (inactive) throughout.
As to `Cc1ccnc2nc(N)ccc12`, the GI50 in the assay with NCI-H226 was > 100 µM (inactive); with SNB-75, 66.7 µM (inactive); with HCT-116, > 100 µM (inactive); in the assay on OVCAR-5 it was > 100 µM (inactive); in the assay with SF-295, > 100 µM (inactive); in the assay with PC-3 it was > 100 µM (inactive). The GI50 with EKVX, with OVCAR-4, in the assay on CAKI-1, in the assay on NCI-H460, in the assay with MDA-MB-435 and in the assay with MDA-MB-231 was > 100 µM (inactive) throughout. In addition, the GI50 in the assay on ACHN, in the assay on OVCAR-8, in the assay on UACC-62 and with Hs-578T was > 100 µM (inactive) throughout.
Regarding `COc1ccc(/C=C2\C[C@H]3[C@@H]4CCC5=C/C(=N/O)CC[C@]5(C)[C@H]4CC[C@]3(C)\C2=N\O)cc1OC`, the GI50 is 2.51 µM (inactive) with NCI-H226; > 100 µM (inactive) in the assay on SNB-75; 6.56 µM (inactive) in the assay on HCT-116; 41 µM (inactive) in the assay with OVCAR-5; 7 µM (inactive) in the assay on SF-295; 10.7 µM (inactive) in the assay on PC-3. Besides, the GI50 was 3.36 µM (inactive) in the assay on EKVX; 11 µM (inactive) in the assay with OVCAR-4; 8.43 µM (inactive) in the assay on CAKI-1; 3.61 µM (inactive) in the assay on NCI-H460; 18.8 µM (inactive) in the assay with MDA-MB-435; 14.5 µM (inactive) in the assay on ACHN. Also, the GI50 was 10.7 µM (inactive) with HCC 2998, 11 µM (inactive) in the assay on OVCAR-8, 22.2 µM (inactive) in the assay with UACC-62 and > 100 µM (inactive) in the assay with Hs-578T.
For `CC1(C)CN=C(Nc2ccc(F)cc2)S1`, the GI50 in the assay with NCI-H226, in the assay with SNB-75, in the assay on HCT-116, in the assay with OVCAR-5, with SF-295 and in the assay with PC-3 was > 100 µM (inactive) each time. The GI50 in the assay with EKVX, with OVCAR-4, with CAKI-1, in the assay with MDA-MB-435, in the assay on ACHN and in the assay on HCC 2998 was > 100 µM (inactive) each time. Further, the GI50 with OVCAR-8, in the assay with UACC-62 and in the assay with Hs-578T was > 100 µM (inactive) each time.
Turning to `CN(C)C(=O)C(F)(F)C(c1ccc(Br)cc1)C1C(=O)N(C)C(=O)N(C)C1=O` (stereo not drawn), the GI50 in the assay with NCI-H226, in the assay on SNB-75, with HCT-116, in the assay on OVCAR-5, with SF-295 and in the assay with PC-3 was > 100 µM (inactive) each time. In addition, the GI50 in the assay on EKVX, in the assay on OVCAR-4, with CAKI-1, with NCI-H460, in the assay with MDA-MB-435 and in the assay on MDA-MB-231 was > 100 µM (inactive) throughout. In addition, the GI50 in the assay with ACHN, in the assay with HCC 2998 and in the assay with UACC-62 was > 100 µM (inactive) each time.
